# Key:
# TrkA = molecular target: T1, TrkA (Homo sapiens, UniProt P04629); assay: Enzyme Fragment Complementation cell-based assay, TrkA; details: U2OS-cells over-expressing TrkA; ligand 10 ng/mL; 3 hours incubation
# T1 construct: expressed in transfected cells; host or cells: U2OS
# Source text: (§1) A high throughput cell-based screen has been used to identify positive modulators of TrkA, TrkB and TrkC. The screen involves the use of cell-based assay overexpressing TrkA, TrkB or TrkC. The purpose of the assay is to identify compounds that modulate neurotrophin signalling (Forsell et al 2012). The assay can be used in inhibitor mode using a high concentration of ligand, in modulator mode using an intermediate concentration and in agonist mode using a low concentration of ligand.
# (§2) The assay uses Enzyme Fragment Complementation (EFC) technique, which is a proximity-based assay. Briefly, cells used in this assay over-express two fusion proteins, i.e. the receptor, which can be either one of TrkA, TrkB, TrkC, IGF1R or FGFR1, fused to a small peptide of beta-galactosidase and an adaptor protein, i.e. SHC1 (or any other Trk-adaptor protein) fused to the major part of beta-galactosidase. […] The proximity between the small activating peptide on the receptor and the major part of beta-galactosidase on the adaptor protein leads to an active beta-galactosidase enzyme. The activation of the receptor is quantified by measuring the amount of active beta-galactosidase by its conversion of a non-luminescent substrate into a luminescent product.
# (§3) U2OS-cells, over-expressing TrkA or TrkB or TrkC, are plated in 96- or 384-well plates and incubated overnight. Alternatively, cryopreserved HEK293-cells expressing IGFR1 or cryopreserved U2OS-cells expressing FGFR1 were plated in 96- or 384-well plates. On the following day, test compound was pre-mixed with ligand (NGF, BDNF, NT-3, IGF-1 or basic fibroblast growth factor (bFGF(FGF-2))) and the ligand-compound mixture is then added to the cells to yield a final ligand concentration of 10 ng/mL. After 3 hours of incubation at room temperature, the incubation is stopped by the addition of a beta-galactosidase substrate mixture containing detergents. The substrate mixture is incubated for 60 minutes at ambient temperature. The luminescence is thereafter read by the use of a plate reader.
# TrkB = molecular target: T2, TrkB (Homo sapiens, UniProt Q16620); assay: Enzyme Fragment Complementation cell-based assay, TrkB; details: U2OS-cells over-expressing TrkB; ligand 10 ng/mL; 3 hours incubation
# T2 construct: expressed in transfected cells; host or cells: U2OS
# T2 sequence (Q16620 32-822): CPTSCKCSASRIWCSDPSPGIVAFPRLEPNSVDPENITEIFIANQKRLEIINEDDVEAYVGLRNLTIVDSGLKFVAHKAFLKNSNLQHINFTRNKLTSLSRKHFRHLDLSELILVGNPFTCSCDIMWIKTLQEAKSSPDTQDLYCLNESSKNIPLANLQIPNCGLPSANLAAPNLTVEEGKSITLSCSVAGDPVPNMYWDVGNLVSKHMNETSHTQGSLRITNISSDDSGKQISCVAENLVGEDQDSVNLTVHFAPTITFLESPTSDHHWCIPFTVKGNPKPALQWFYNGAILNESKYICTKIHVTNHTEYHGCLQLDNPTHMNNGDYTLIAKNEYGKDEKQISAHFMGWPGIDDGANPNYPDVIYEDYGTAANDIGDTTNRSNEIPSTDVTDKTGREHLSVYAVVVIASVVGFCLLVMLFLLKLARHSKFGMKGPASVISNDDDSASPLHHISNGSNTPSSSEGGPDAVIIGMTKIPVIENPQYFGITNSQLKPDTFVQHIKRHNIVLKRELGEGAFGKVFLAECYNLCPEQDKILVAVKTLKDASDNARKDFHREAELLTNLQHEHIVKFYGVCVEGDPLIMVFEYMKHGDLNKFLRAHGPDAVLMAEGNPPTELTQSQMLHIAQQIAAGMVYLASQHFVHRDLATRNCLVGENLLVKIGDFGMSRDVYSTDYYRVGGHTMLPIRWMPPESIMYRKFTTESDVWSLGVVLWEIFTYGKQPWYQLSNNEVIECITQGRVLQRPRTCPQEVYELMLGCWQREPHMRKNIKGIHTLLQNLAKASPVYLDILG
# Source text: as §1, §2, §3
# T1 sequence (P04629 33-796): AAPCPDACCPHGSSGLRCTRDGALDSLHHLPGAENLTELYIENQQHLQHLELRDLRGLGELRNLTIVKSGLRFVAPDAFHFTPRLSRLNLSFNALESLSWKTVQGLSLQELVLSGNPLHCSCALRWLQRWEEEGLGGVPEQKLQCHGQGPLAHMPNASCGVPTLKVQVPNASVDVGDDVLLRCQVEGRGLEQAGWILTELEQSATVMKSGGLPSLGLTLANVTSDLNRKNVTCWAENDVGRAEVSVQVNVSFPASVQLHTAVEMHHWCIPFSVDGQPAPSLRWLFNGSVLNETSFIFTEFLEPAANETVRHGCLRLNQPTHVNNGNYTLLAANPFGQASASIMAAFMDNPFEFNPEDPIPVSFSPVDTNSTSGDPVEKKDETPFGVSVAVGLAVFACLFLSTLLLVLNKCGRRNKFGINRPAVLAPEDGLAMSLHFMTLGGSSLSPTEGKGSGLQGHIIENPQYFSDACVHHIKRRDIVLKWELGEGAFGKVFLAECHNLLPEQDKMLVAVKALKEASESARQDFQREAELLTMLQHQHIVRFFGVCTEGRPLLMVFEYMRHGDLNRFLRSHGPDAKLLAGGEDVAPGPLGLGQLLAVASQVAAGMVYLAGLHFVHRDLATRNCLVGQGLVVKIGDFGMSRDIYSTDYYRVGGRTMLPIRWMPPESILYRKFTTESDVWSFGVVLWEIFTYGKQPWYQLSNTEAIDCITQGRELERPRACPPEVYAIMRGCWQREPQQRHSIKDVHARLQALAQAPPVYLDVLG
EC50 (TrkA) [nM],EC50 (TrkB) [nM],Structure (SMILES)
1400,2400,"COc1ccc(-n2c(=O)[nH]c(=O)n(-c3ccc(Oc4ccccc4)cc3)c2=O)cc1 [Example 2, 1-(4-methoxyphenyl)-3-(4-phenoxyphenyl)-1,3,5-triazinane-2,4,6-trione]"
6700,–,"N#Cc1cccc(-n2c(=O)[nH]c(=O)n(-c3ccc(Oc4ccccc4)cc3)c2=O)c1 [Example 3, 3-[2,4,6-trioxo-3-(4-phenoxyphenyl)-1,3,5-triazinan-1-yl]benzonitrile]"
620,450,"COc1cc(Oc2ccccc2)c(C)cc1-n1c(=O)[nH]c(=O)n(-c2ccccc2)c1=O [Example 13, 1-(2-methoxy-5-methyl-4-phenoxyphenyl)-3-phenyl-1,3,5-triazinane-2,4,6-trione]"
490,–,"COc1cc(-n2c(=O)[nH]c(=O)n(-c3ccccc3)c2=O)cc(C)c1Oc1ccccc1 [Example 14, 1-(3-methoxy-5-methyl-4-phenoxyphenyl)-3-phenyl-1,3,5-triazinane-2,4,6-trione]"
870,140,"Cc1cc(-n2c(=O)[nH]c(=O)n(-c3ccccn3)c2=O)ccc1Oc1ccccc1 [Example 18, 1-(3-methyl-4-phenoxyphenyl)-3-(pyridin-2-yl)-1,3,5-triazinane-2,4,6-trione]"
820,880,"O=c1[nH]c(=O)n(-c2ccc3c(cnn3-c3ccccc3)c2)c(=O)n1-c1ccccc1 [Example 19, 1-phenyl-3-(1-phenyl-1H-indazol-5-yl)-1,3,5-triazinane-2,4,6-trione]"
46000,69000,"Cn1c(=O)[nH]c(=O)n(-c2ccc3c(cnn3-c3ccccc3)c2)c1=O [Example 31, 1-methyl-3-(1-phenyl-1H-indazol-5-yl)-1,3,5-triazinane-2,4,6-trione]"
800,–,"COc1cc(-n2c(=O)[nH]c(=O)n(C)c2=O)cc(C)c1Oc1ccccc1 [Example 32, 1-(3-methoxy-5-methyl-4-phenoxyphenyl)-3-methyl-1,3,5-triazinane-2,4,6-trione]"
230,100,"COc1c(-n2c(=O)[nH]c(=O)n(-c3ccccc3)c2=O)ccc(Oc2ccccc2)c1C [Example 33, 1-(2-methoxy-3-methyl-4-phenoxyphenyl)-3-phenyl-1,3,5-triazinane-2,4,6-trione]"
190,280,"Cc1cc(-n2c(=O)[nH]c(=O)n(-c3ccccc3)c2=O)ccc1Cc1ccccc1 [Example 42, 1-(4-benzyl-3-methylphenyl)-3-phenyl-1,3,5-triazinane-2,4,6-trione]"
160,120,"Cc1cc(-n2c(=O)[nH]c(=O)n(-c3cccc(Cl)c3)c2=O)ccc1Oc1ccccc1 [Example 43, 1-(3-chlorophenyl)-3-(3-methyl-4-phenoxyphenyl)-1,3,5-triazinane-2,4,6-trione]"
330,260,"Cc1cc(-n2c(=O)[nH]c(=O)n(-c3cccc(OC(F)(F)F)c3)c2=O)ccc1Oc1ccccc1 [Example 44, 1-(3-methyl-4-phenoxyphenyl)-3-[3-(trifluoromethoxy)phenyl]-1,3,5-triazinane-2,4,6-trione]"
470,360,"Cc1cc(-n2c(=O)[nH]c(=O)n(-c3ccc(F)cc3)c2=O)ccc1Oc1ccccc1 [Example 45, 1-(4-fluorophenyl)-3-(3-methyl-4-phenoxyphenyl)-1,3,5-triazinane-2,4,6-trione]"
480,240,"Cc1cc(-n2c(=O)[nH]c(=O)n(-c3ccc4occc4c3)c2=O)ccc1Oc1ccccc1 [Example 46, 1-(1-benzofuran-5-yl)-3-(3-methyl-4-phenoxyphenyl)-1,3,5-triazinane-2,4,6-trione]"
480,270,"Cc1cc(-n2c(=O)[nH]c(=O)n(-c3ccc4[nH]ccc4c3)c2=O)ccc1Oc1ccccc1 [Example 47, 1-(1H-indol-5-yl)-3-(3-methyl-4-phenoxyphenyl)-1,3,5-triazinane-2,4,6-trione]"
500,260,"Cc1cc(-n2c(=O)[nH]c(=O)n(-c3ccc4c(c3)OCO4)c2=O)ccc1Oc1ccccc1 [Example 48, 1-(2H-1,3-benzodioxol-5-yl)-3-(3-methyl-4-phenoxyphenyl)-1,3,5-triazinane-2,4,6-trione]"

EC50 (TrkA) [nM],EC50 (TrkB) [nM],Structure (SMILES)
310,190,"COc1cccc(-n2c(=O)[nH]c(=O)n(-c3ccc(Oc4ccccc4)c(C)c3)c2=O)c1 [Example 50, 1-(3-methoxyphenyl)-3-(3-methyl-4-phenoxyphenyl)-1,3,5-triazinane-2,4,6-trione]"
180,260,"COc1ccccc1-n1c(=O)[nH]c(=O)n(-c2ccc(Oc3ccccc3)c(C)c2)c1=O [Example 51, 1-(2-methoxyphenyl)-3-(3-methyl-4-phenoxyphenyl)-1,3,5-triazinane-2,4,6-trione]"
380,410,"COc1cccc(-n2c(=O)[nH]c(=O)n(-c3ccc(Oc4ccccc4)c(OC)c3)c2=O)c1 [Example 52, 1-(3-methoxy-4-phenoxyphenyl)-3-(3-methoxyphenyl)-1,3,5-triazinane-2,4,6-trione]"
960,780,"COc1ccc(-n2c(=O)[nH]c(=O)n(-c3ccc(Oc4ccccc4)c(OC)c3)c2=O)cc1 [Example 53, 1-(3-methoxy-4-phenoxyphenyl)-3-(4-methoxyphenyl)-1,3,5-triazinane-2,4,6-trione]"
440,310,"Cc1cc(-n2c(=O)[nH]c(=O)n(-c3ccccc3)c2=O)c(C)cc1Oc1ccccc1 [Example 54, 1-(2,5-dimethyl-4-phenoxyphenyl)-3-phenyl-1,3,5-triazinane-2,4,6-trione]"
390,1400,"Cc1cc(-n2c(=O)[nH]c(=O)n(C)c2=O)ccc1Oc1ccccc1 [Example 55, 1-methyl-3-(3-methyl-4-phenoxyphenyl)-1,3,5-triazinane-2,4,6-trione]"
300,220,"COCCOc1cc(-n2c(=O)[nH]c(=O)n(-c3ccc(OC)cc3)c2=O)ccc1Oc1ccccc1 [Example 60, 1-[3-(2-methoxyethoxy)-4-phenoxyphenyl]-3-(4-methoxyphenyl)-1,3,5-triazinane-2,4,6-trione]"
420,380,"COCCOc1cc(-n2c(=O)[nH]c(=O)n(-c3cccc(OC)c3)c2=O)ccc1Oc1ccccc1 [Example 61, 1-[3-(2-methoxyethoxy)-4-phenoxyphenyl]-3-(3-methoxyphenyl)-1,3,5-triazinane-2,4,6-trione]"
930,3180,"Cc1ccccc1Oc1ccc(-n2c(=O)[nH]c(=O)n(-c3ccccc3)c2=O)cc1C [Example 62, 1-[3-methyl-4-(2-methylphenoxy)phenyl]-3-phenyl-1,3,5-triazinane-2,4,6-trione]"
2380,950,"Cc1cc(-n2c(=O)[nH]c(=O)n(-c3cscn3)c2=O)ccc1Oc1ccccc1 [Example 63, 1-(3-methyl-4-phenoxyphenyl)-3-(1,3-thiazol-4-yl)-1,3,5-triazinane-2,4,6-trione]"
370,370,"COCCOc1cc(-n2c(=O)[nH]c(=O)n(-c3ccc(C)s3)c2=O)ccc1Oc1ccccc1 [Example 66, 1-[3-(2-methoxyethoxy)-4-phenoxyphenyl]-3-(5-methylthiophen-2-yl)-1,3,5-triazinane-2,4,6-trione]"
3200,26000,"Cc1cc(-n2c(=O)[nH]c(=O)n(-c3ccc(Oc4ccccc4)c(C)c3)c2=O)ccc1Oc1ccccc1 [Example 67, 1,3-bis(3-methyl-4-phenoxyphenyl)-1,3,5-triazinane-2,4,6-trione]"
660,350,"Cc1cc(Oc2ccccc2)ccc1-n1c(=O)[nH]c(=O)n(-c2ccccc2)c1=O [Example 70, 1-(2-methyl-4-phenoxyphenyl)-3-phenyl-1,3,5-triazinane-2,4,6-trione]"
1660,610,"Cc1ccc(-n2c(=O)[nH]c(=O)n(-c3ccc(Oc4ccccc4)cc3C)c2=O)cc1 [Example 71, 1-(2-methyl-4-phenoxyphenyl)-3-(4-methylphenyl)-1,3,5-triazinane-2,4,6-trione]"
200,110,"Cc1cc(-n2c(=O)[nH]c(=O)n(-c3cccc4occc34)c2=O)ccc1Oc1ccccc1 [Example 72, 1-(1-benzofuran-4-yl)-3-(3-methyl-4-phenoxyphenyl)-1,3,5-triazinane-2,4,6-trione]"
140,100,"Cc1cc(-n2c(=O)[nH]c(=O)n(-c3cccc4ccoc34)c2=O)ccc1Oc1ccccc1 [Example 73, 1-(1-benzofuran-7-yl)-3-(3-methyl-4-phenoxyphenyl)-1,3,5-triazinane-2,4,6-trione]"

# Source: patent US12209071B2, “Triazine derivatives for treating diseases relating to neurotrophins” (AlzeCure Pharma AB, priority 2018, dated 2025)
